Laboratory results: ChEMBL document CHEMBL1201862, “PubChem BioAssay data set” (2004)
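Dose response: 5 concentrations. Exposure: 48 h. Format: 96-well plates. Endpoint: linear interpolation; highest concentration if not reached. GI50: concentration for 50% inhibition of growth.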 Activity calls are given as the source filed them. No stated cut-off is given here; in the data, active = GI50 up to about 1.1 µM and inactive = higher.

How the values were obtained:
Assay in all cases: growth of human tumour cells (NCI), 48 h
786-0 = test system: 786-0
CCRF-CEM = test system: CCRF-CEM
COLO 205 = test system: COLO 205
DU-145 = test system: DU-145
HCC 2998 = test system: HCC 2998
Hs-578T = test system: Hs-578T
KM12 = test system: KM12
MDA-MB-231 = test system: MDA-MB-231
MDA-MB-435 = test system: MDA-MB-435
NCI-H226 = test system: NCI-H226
NCI/ADR-RES = test system: NCI/ADR-RES
OVCAR-3 = test system: OVCAR-3
OVCAR-5 = test system: OVCAR-5
OVCAR-8 = test system: OVCAR-8
SF-539 = test system: SF-539
SK-MEL-2 = test system: SK-MEL-2
SK-MEL-5 = test system: SK-MEL-5
SK-OV-3 = test system: SK-OV-3
SNB-75 = test system: SNB-75
UACC-257 = test system: UACC-257

Compound | GI50 (786-0) | GI50 (CCRF-CEM) | GI50 (COLO 205) | GI50 (DU-145) | GI50 (HCC 2998) | GI50 (Hs-578T) | GI50 (KM12) | GI50 (MDA-MB-231) | GI50 (MDA-MB-435) | GI50 (NCI-H226) | GI50 (NCI/ADR-RES) | GI50 (OVCAR-3) | GI50 (OVCAR-5) | GI50 (OVCAR-8) | GI50 (SF-539) | GI50 (SK-MEL-2) | GI50 (SK-MEL-5) | GI50 (SK-OV-3) | GI50 (SNB-75) | GI50 (UACC-257)
CC(=O)OCC1OC(n2c(-c3cccs3)c3c(c(C#N)c2=S)-c2ccccc2CC3)C(OC(C)=O)C(OC(C)=O)C1OC(C)=O (stereo not given) | 9.27 µM (inactive) | 9.91 µM (inactive) | 9.35 µM (inactive) | 23.9 µM (inactive) | 8.73 µM (inactive) | 7.52 µM (inactive) | 9.14 µM (inactive) | 16.6 µM (inactive) | 2.77 µM (inactive) | 28.4 µM (inactive) | 17.7 µM (inactive) | 10.4 µM (inactive) | 26.5 µM (inactive) | 5.38 µM (inactive) | 9.57 µM (inactive) | 5.48 µM (inactive) | 6.18 µM (inactive) | 20.2 µM (inactive) | 1.36 µM (inactive) | 12.8 µM (inactive)
CCCCC1Cc2cc(O)ccc2-c2n1c1cc(O)ccc1[n+]2C.CCCCC1Cc2cc(O)ccc2-c2n1c1ccc(O)cc1[n+]2C (stereo not given) | 26.5 µM (inactive) | 9.59 µM (inactive) | 18.3 µM (inactive) | 78.7 µM (inactive) | 28.2 µM (inactive) | 5.47 µM (inactive) | 28.2 µM (inactive) | 48 µM (inactive) | 19 µM (inactive) | 41 µM (inactive) | > 100 µM (inactive) | 10.7 µM (inactive) | 63.5 µM (inactive) | 28.3 µM (inactive) | 40.3 µM (inactive) | 32.7 µM (inactive) | 4.05 µM (inactive) | 57.3 µM (inactive) | 12.7 µM (inactive) | 11.6 µM (inactive)
N#CC(c1ccccc1)N(CCc1ccccc1)C(=O)c1ccc(C(=O)N(CCc2ccccc2)C(C#N)c2ccccc2)cc1 (stereo not given) | 22.6 µM (inactive) | 26.1 µM (inactive) | 21.9 µM (inactive) | 42.6 µM (inactive) | 15.3 µM (inactive) | 12.9 µM (inactive) | 32.9 µM (inactive) | 24.6 µM (inactive) | 22.9 µM (inactive) | 17 µM (inactive) | 17.9 µM (inactive) | 17.1 µM (inactive) | 19.8 µM (inactive) | 17.6 µM (inactive) | 19.5 µM (inactive) | 19.6 µM (inactive) | 13.5 µM (inactive) | 31.9 µM (inactive) | 19.3 µM (inactive) | 18.1 µM (inactive)
O=[N+]([O-])c1cccc(-c2csc(N/N=C3\NC/C(=C/c4ccc5c(c4)OCO5)S3)n2)c1 | 38.4 µM (inactive) | 35.4 µM (inactive) | 28.4 µM (inactive) | 33.8 µM (inactive) | 31.9 µM (inactive) | 24.2 µM (inactive) | 12.9 µM (inactive) | 35.1 µM (inactive) | 40.2 µM (inactive) | 16.6 µM (inactive) | 19.6 µM (inactive) | 30.3 µM (inactive) | 28.4 µM (inactive) | 14.3 µM (inactive) | 40.8 µM (inactive) | 22.1 µM (inactive) | 17.3 µM (inactive) | 26.8 µM (inactive) | 15.4 µM (inactive) | 35.9 µM (inactive)
CC(C)(C)OC(=O)N(CCCCN(CCCNC(=O)C(F)(F)F)C(=O)OC(C)(C)C)CCCNC(=O)C(F)(F)F | > 100 µM (inactive) | > 100 µM (inactive) | > 100 µM (inactive) | > 100 µM (inactive) | > 100 µM (inactive) | > 100 µM (inactive) | > 100 µM (inactive) | > 100 µM (inactive) | > 100 µM (inactive) | > 100 µM (inactive) | 91.2 µM (inactive) | 45.3 µM (inactive) | > 100 µM (inactive) | > 100 µM (inactive) | > 100 µM (inactive) | > 100 µM (inactive) | 79.3 µM (inactive) | > 100 µM (inactive) | > 100 µM (inactive) | > 100 µM (inactive)
CCOC(=O)N1CC2(C(=O)OC)C=CC1C(C(=O)OC)C2 (stereo not given) | > 100 µM (inactive) | > 100 µM (inactive) | > 100 µM (inactive) | > 100 µM (inactive) | > 100 µM (inactive) | > 100 µM (inactive) | > 100 µM (inactive) | > 100 µM (inactive) | > 100 µM (inactive) | > 100 µM (inactive) | > 100 µM (inactive) | > 100 µM (inactive) | > 100 µM (inactive) | > 100 µM (inactive) | > 100 µM (inactive) | > 100 µM (inactive) | > 100 µM (inactive) | > 100 µM (inactive) | > 100 µM (inactive) | > 100 µM (inactive)
O=C1C=CC(=O)c2c1ccc1c3ccccc3n(-c3ccccc3[N+](=O)[O-])c21 | 2.13 µM (inactive) | 0.181 µM (active) | 2.07 µM (inactive) | 4.68 µM (inactive) | 3.42 µM (inactive) | 10.7 µM (inactive) | 8.97 µM (inactive) | 2.76 µM (inactive) | 2.26 µM (inactive) | 20.2 µM (inactive) | 5.05 µM (inactive) | 2.44 µM (inactive) | 17.3 µM (inactive) | 2.03 µM (inactive) | 22.5 µM (inactive) | 13.3 µM (inactive) | 6.89 µM (inactive) | 17 µM (inactive) | 13.9 µM (inactive) | 3.56 µM (inactive)
CCOC(=O)/C(C#N)=C/c1ccc2c(c1)CC1(C2)Cc2cc(CC)c(C(C)O)cc2C1 (stereo not given) | 17.3 µM (inactive) | 4.61 µM (inactive) | 25.2 µM (inactive) | 19.2 µM (inactive) | 16.3 µM (inactive) | 10 µM (inactive) | 19.6 µM (inactive) | 10.5 µM (inactive) | 2.14 µM (inactive) | 19.3 µM (inactive) | 8.77 µM (inactive) | 8.04 µM (inactive) | 33 µM (inactive) | 15 µM (inactive) | 9.82 µM (inactive) | 7.21 µM (inactive) | 4.78 µM (inactive) | 15.4 µM (inactive) | 8.38 µM (inactive) | 15.8 µM (inactive)
CCc1cccc(C(C)(C)C)c1NC(=S)N/C=C(/C#N)C(N)=O | > 100 µM (inactive) | > 100 µM (inactive) | > 100 µM (inactive) | > 100 µM (inactive) | > 100 µM (inactive) | 83 µM (inactive) | > 100 µM (inactive) | > 100 µM (inactive) | > 100 µM (inactive) | > 100 µM (inactive) | > 100 µM (inactive) | 92.7 µM (inactive) | > 100 µM (inactive) | > 100 µM (inactive) | > 100 µM (inactive) | > 100 µM (inactive) | > 100 µM (inactive) | > 100 µM (inactive) | 30.9 µM (inactive) | > 100 µM (inactive)
